What was measured:
IL-6 = IL-6 production in splenic CD11c+ DCs ex vivo; conditions: indole overnight, LPS or heat-killed S. typhimurium
IL-12 = IL-12 production in splenic CD11c+ DCs ex vivo; conditions: indole overnight, LPS or heat-killed S. typhimurium
DCs = experiment: DC viability: lactate dehydrogenase release and propidium iodide uptake; conditions: versus solvent controls
[1] = system: reactive oxygen species (ROS); experiment: Reactive oxygen species production in DC2.4 and BMDC
Akt [2] = experiment: phospho-Akt signaling in BMDMs; type: cell-based, mouse
Protocol: The PI3K/Akt and MAPK/Erk signaling pathways regulate many cellular processes including survival, apoptosis, growth, and cytokine production. […] Specifically, BMDMs were treated with indole (1 mM) or DMF control for 18 hours, then stimulated with LPS (10 ug/ml) or CpG (5 uM) for 30 minutes. Cells were stained for phospho-Akt or phospho-Erk and analyzed by flow cytometry.
(§1) The inventors performed a series of assays where bone marrow derived macrophages (BMDMs), bone marrow derived dendritic cells (BMDCs), and splenic dendritic cells (splenic DCs), were exposed to a series of TDMMs, including indole, indole-3-acetate (I3AT), 5-hydroxyindole (5HI), and indole-3-pyruvate (I3P), as well as indole-3-carbinol (I3C; a plant derived compound) to be used for a positive control (1 mM for 24 hours). The BMDMs and BMDCs were stimulated with LPS for 4 hours and assayed at day 7 for expression of various pro-inflammatory cytokines. In a similar assay, the BMDMs and BMDCs were stimulated with LPS or CpG, respectively, for 15 minutes and assayed for pAKT and pERK signaling, which is a reflection of pro-inflammatory response.

Stat3 = experiment: IL-6-induced phospho-Stat3 in BMDCs, flow cytometry; type: cell-based, mouse
Protocol: Flow cytometric analysis was performed on BMDCs conditioned with indole from day 3 of culture and subsequently stimulated with IL-6 (10 ng/ml) for the given times. Cells were stained for phospho-Stat3 and analyzed by flow cytometry.
Flow cytometric analysis of BMDCs from WT or AhrKO mice cultured in the presence of indole or DMF from day 3. DCs were stimulated with IL-6 (10 ng/ml) for the given times and stained for phospho-Stat3, which was detected by flow cytometry. Stat3 signaling is shown as percent of phosphorylated cells (FIG. 10A), and MFI of the Stat3 positive population (FIGS. 10B and 10C). The specific Stat3 inhibitor, cucurbitacin I, was included as a negative control. Representative data is shown from one of four independent experiments.
BMDCs were conditioned with indole from day 3 and then induced Stat3 signaling by stimulation with IL-6 (FIGS. 6A and 6B). While Stat3 has both a tyrosine (Y705) and serine (S727) activation site, tyrosine phosphorylation is mediated by Janus kinases and required for Stat3 nuclear localization and subsequent DNA binding. Thus, the […] was queried for this study.

Akt [3] = experiment: phospho-Akt in BMDCs, flow cytometry; type: cell-based, mouse
Protocol: Flow cytometric analysis was performed on BMDCs conditioned with indole from day 3 of culture and subsequently stimulated with LPS (5 ug/ml) for the given times. Cells were stained for phospho-Akt and analyzed by flow cytometry.
Flow cytometric analysis was performed on BMDCs from WT or AhrKO mice cultured in the presence of indole (1 mM) from day 3. DCs were stimulated with LPS (5 ug/ml) for the given times and stained for phospho-Akt, which was detected by flow cytometry. Percentage of pAkt-positive DCs indicated. Representative data is from one of three independent experiments.
Another central mediator of cellular signaling is the serine/threonine kinase, Akt (also referred to as protein kinase B), which regulates cellular processes including metabolism, growth, proliferation, and survival. The Akt pathway is activated by numerous receptor tyrosine kinases, cytokine receptors, G-protein-coupled receptors, and other molecules which activate the lipid kinase PI3K and result in production of phosphatidylinositol (3,4,5)-trisphosphate (PIPS). This second messenger acts as a docking site at the plasma membrane for Akt where phosphorylation and activation occurs. Akt is located upstream of NF-kB and can induce NF-kB signaling via phosphorylation of IKKα and Tp12. The effect of indole on Akt phosphorylation was assessed to determine whether indole's inhibition of NF-kB might be a secondary effect due to modulation of an upstream target.
as §1

CCR9 = CCR9 surface expression on BMDCs; type: cell-based, mouse; conditions: BMDCs cultured from day 3 with indole (1 mM) or retinoic acid (1 μM), day 7
Protocol: FIGS. 12A and 12B graphically illustrate that indole induces CCR9 and B220 on DCs. BMDCs were cultured in the presence of indole (1 mM), retinoic acid (1 μM), or DMF solvent control from day 3. On day 7, DCs were surface stained for expression of CCR9 and B220 and analyzed by flow cytometry. […] Mean of three independent experiments. * indicates p<0.05 for one-way ANOVA followed by Dunnett's post-test.
Dendritic cell subsets bear numerous surface antigens that regulate their migration and localization. Because indole is produced in the gut and appears to induce anti-inflammatory properties in DCs (as described above), it was hypothesized that indole might affect migration and retention in mucosal tissues. Thus, expression of the gut homing marker, chemokine receptor CCR9 was investigated. […] Retinoic acid (RA) was included as a positive control. RA is present in murine plasma at approximately […] and is predicted to exist at higher concentrations in tissue microenvironments in vivo. Thus, 1 uM was used as a conservative estimate of relevant physiological concentration. Indole's effect was even more profound than that of retinoic acid, a known inducer of mucosal homing markers on T cells (see, e.g., Iwata M, et al. (2004) Retinoic Acid Imprints Gut-Homing Specificity on T Cells. Immunity 21(4):527-538). […]

Salmonella Typhimurium = experiment: Colonization of mice by Salmonella exposed to indole; type: in vivo; conditions: Salmonella exposed to indole compared to solvent-treated controls
IL-10 = IL-10 production by BMDC cultures (ELISA); type: cell-based, mouse; conditions: indole-conditioned DCs
Protocol: To determine whether this was a specific downregulation of pro-inflammatory cytokines, production of the canonical DC-produced anti-inflammatory cytokines, IL-10 and TGF-β, was also examined.
Cytokine concentration in the supernatant of BMDC cultures was assessed using commercially available ELISA kits for IL-10 (Peprotech) and TGF-β (eBioscience) per the manufacturer's instructions.

[4] = indole-DCs generated from WT or AhR−/− bone marrow

c1ccc2[nH]ccc2c1 [Indole, indole]
inhibition of IL-6 production (IL-6): ≥ 2 fold | inhibition of IL-12 production (IL-12): ≥ 2 fold | cytotoxicity in DCs (DCs): did not induce cytotoxicity | secretion of reactive oxygen species (ROS) [1]: intact | pAKT (Akt [2]; 1 mM TDMM 24 hours, LPS 1 ug/ml 15 minutes): ↓ | dampening of pAkt signaling (Akt [2]; indole 1 mM 18 hours, LPS (10 ug/ml) or CpG (5 uM) 30 minutes): approximately 50% | peak phosphorylation of Stat3 (percentage of DCs) (Stat3; BMDCs, 1 mM indole from day 3, IL-6 10 ng/ml, 15 minutes post-stimulation): 8% | suppression of phospho-Stat3 MFI (Stat3; BMDCs, indole from day 3, IL-6 stimulation, throughout 60 minute timecourse): ≥ 2 fold | inhibition of Stat3 phospho-signaling, WT versus AhR−/− (Stat3; [4]): nearly equivalent inhibition | pAKT (Akt [3]; BMDCs, 1 mM TDMM 24 hours, CpG (5 uM) 15 minutes): ↓↓ | reduction of phospho-Akt (Akt [3]; BMDCs, 1 mM indole, 30 minutes post-LPS stimulation): over 50% | phospho-Akt in the absence of external stimulation (Akt [3]; BMDCs, indole versus controls, unstimulated): No difference | inhibition of Akt phospho-signaling, WT versus AhR−/− (Akt [3]; [4]): nearly equivalent inhibition | surface expression of CCR9 on conditioned DCs (CCR9): 34% | competitiveness of Salmonella in colonizing mice (Salmonella Typhimurium): less competitive | IL-10 production (IL-10): Neither IL-10 nor TGF-β production were affected

— patent publication US11612586B2, “Indole regulation of antigen presenting cells” (THE TEXAS A&M UNIVERSITY SYSTEM, priority 2016, dated 2023)
